In ChEMBL document CHEMBL1201862, “PubChem BioAssay data set” (2004):
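Method: 48-hour compound exposure of cells in 96-well plates, five concentrations, linear interpolation of endpoints. GI50: concentration for 50% inhibition of growth.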 The source made the active and inactive calls. No stated cut-off is given here; in the data, active = GI50 up to about 1.1 µM and inactive = higher.

Experiments:
Assay in all cases: NCI tumour cell line growth inhibition, 48 h
SF-268 = system: SF-268
RXF 631 = system: RXF 631
SNB-78 = system: SNB-78
HOP-18 = system: HOP-18
COLO 205 = system: COLO 205
SNB-19 = system: SNB-19
SK-MEL-28 = system: SK-MEL-28
NCI/ADR-RES = system: NCI/ADR-RES
HCT-116 = system: HCT-116
OVCAR-8 = system: OVCAR-8
KM-20L2 = system: KM-20L2
DMS-114 = system: DMS-114
MDA-N = system: MDA-N
OVCAR-4 = system: OVCAR-4
786-0 = system: 786-0
DU-145 = system: DU-145
KM12 = system: KM12
M19-MEL = system: M19-MEL
OVCAR-3 = system: OVCAR-3
HCC 2998 = system: HCC 2998
NCI-H23 = system: NCI-H23
MDA-MB-231 = system: MDA-MB-231
ACHN = system: ACHN
SN12C = system: SN12C
MDA-MB-435 = system: MDA-MB-435
IGROV-1 = system: IGROV-1
LXFL 529 = system: LXFL 529
HL-60 = system: HL-60
A498 = system: A498
RPMI-8226 = system: RPMI-8226
DMS-273 = system: DMS-273
SNB-75 = system: SNB-75
SK-OV-3 = system: SK-OV-3
RXF 393 = system: RXF 393
SF-295 = system: SF-295
XF498 = system: XF498
UACC-62 = system: UACC-62
Malme-3M = system: Malme-3M
SK-MEL-2 = system: SK-MEL-2
SR = system: SR
NCI-H226 = system: NCI-H226
OVCAR-5 = system: OVCAR-5
CCRF-CEM = system: CCRF-CEM
PC-3 = system: PC-3
BT-549 = system: BT-549
SW-620 = system: SW-620
A549 = system: A549
DLD-1 = system: DLD-1
NCI-H522 = system: NCI-H522
NCI-H460 = system: NCI-H460
TK-10 = system: TK-10
SK-MEL-5 = system: SK-MEL-5
MOLT-4 = system: MOLT-4
T47D = system: T47D
MCF7 = system: MCF7
HOP-62 = system: HOP-62
Hs-578T = system: Hs-578T
HT-29 = system: HT-29
M14 = system: M14
SF-539 = system: SF-539
UACC-257 = system: UACC-257
UO-31 = system: UO-31
K562 = system: K562
HCT-15 = system: HCT-15
EKVX = system: EKVX
HOP-92 = system: HOP-92
LOX IMVI = system: LOX IMVI
U-251 = system: U-251
CAKI-1 = system: CAKI-1

With `O=P(O)(NCCCl)NCCCl` [PALIFOSFAMIDE] the GI50 (SF-268) was 57.8 µM (inactive), the GI50 (RXF 631) was > 100 µM (inactive) and the GI50 (SNB-78) was > 10 µM (inactive). For the same compound, the GI50 (HOP-18) was > 10 µM (inactive), the GI50 (COLO 205) was > 100 µM (inactive) and the GI50 (SNB-19) was > 10 µM (inactive). For the same compound, the GI50 (SK-MEL-28) was > 100 µM (inactive), the GI50 (NCI/ADR-RES) was > 100 µM (inactive) and the GI50 (HCT-116) was > 100 µM (inactive). The GI50 (OVCAR-8) was > 10 µM (inactive), the GI50 (KM-20L2) was > 10 µM (inactive) and the GI50 (DMS-114) was 7.33 µM (inactive). The GI50 (MDA-N) was > 100 µM (inactive), the GI50 (OVCAR-4) was > 100 µM (inactive) and the GI50 (786-0) was > 67.8 µM (inactive). For the same compound, the GI50 (DU-145) was 92.9 µM (inactive), the GI50 (KM12) was > 10 µM (inactive) and the GI50 (M19-MEL) was > 10 µM (inactive). For the same compound, the GI50 (OVCAR-3) was > 10 µM (inactive), the GI50 (HCC 2998) was > 100 µM (inactive) and the GI50 (NCI-H23) was 64.6 µM (inactive). The GI50 (MDA-MB-231) was > 100 µM (inactive), the GI50 (ACHN) was 39.3 µM (inactive) and the GI50 (SN12C) was 63 µM (inactive). For the same compound, the GI50 (MDA-MB-435) was > 100 µM (inactive), the GI50 (IGROV-1) was > 100 µM (inactive) and the GI50 (LXFL 529) was > 10 µM (inactive). The GI50 (HL-60) was > 51.3 µM (inactive), the GI50 (A498) was > 100 µM (inactive) and the GI50 (RPMI-8226) was > 89.5 µM (inactive). The GI50 (DMS-273) was 40 µM (inactive), the GI50 (SNB-75) was > 65.6 µM (inactive) and the GI50 (SK-OV-3) was > 55.8 µM (inactive). The GI50 (RXF 393) was > 10 µM (inactive), the GI50 (SF-295) was 54.1 µM (inactive) and the GI50 (XF498) was > 10 µM (inactive). The GI50 (UACC-62) was 38.6 µM (inactive), the GI50 (Malme-3M) was > 100 µM (inactive) and the GI50 (SK-MEL-2) was > 100 µM (inactive). The GI50 (SR) was 4.95 µM (inactive), the GI50 (NCI-H226) was > 100 µM (inactive) and the GI50 (OVCAR-5) was > 10 µM (inactive). The GI50 (CCRF-CEM) was 47.5 µM (inactive), the GI50 (PC-3) was > 100 µM (inactive) and the GI50 (BT-549) was > 100 µM (inactive). For the same compound, the GI50 (SW-620) was > 10 µM (inactive), the GI50 (A549) was 81.5 µM (inactive) and the GI50 (DLD-1) was > 10 µM (inactive). For the same compound, the GI50 (NCI-H522) was > 100 µM (inactive), the GI50 (NCI-H460) was 28.8 µM (inactive) and the GI50 (TK-10) was > 10 µM (inactive). The GI50 (SK-MEL-5) was > 10 µM (inactive), the GI50 (MOLT-4) was 60.3 µM (inactive) and the GI50 (T47D) was > 100 µM (inactive). For the same compound, the GI50 (MCF7) was > 100 µM (inactive), the GI50 (HOP-62) was 65.6 µM (inactive) and the GI50 (Hs-578T) was > 100 µM (inactive). For the same compound, the GI50 (HT-29) was > 10 µM (inactive), the GI50 (M14) was > 100 µM (inactive) and the GI50 (SF-539) was 52.5 µM (inactive). For the same compound, the GI50 (UACC-257) was > 10 µM (inactive), the GI50 (UO-31) was > 100 µM (inactive) and the GI50 (K562) was > 100 µM (inactive). The GI50 (HCT-15) was over 10 µM, the GI50 (EKVX) was > 10 µM (inactive) and the GI50 (HOP-92) was > 100 µM (inactive). For the same compound, the GI50 (LOX IMVI) was 29.9 µM (inactive), the GI50 (U-251) was > 10 µM (inactive) and the GI50 (CAKI-1) was 39.8 µM (inactive).
